According to ChEMBL document CHEMBL4390652, “Design, biological evaluation and X-ray crystallography of nanomolar multifunctional ligands targeting simultaneously acetylcholinesterase and glycogen synthase kinase-3” (Eur J Med Chem, 2019):

What was measured:
[1] = target: Dual specificity tyrosine-phosphorylation-regulated kinase 1A (Homo sapiens) (UniProt Q13627); assay: Binding affinity to wild-type human partial length DYRK1A (H129 to S509 residues) expressed in mammalian expression system assessed as residual binding level at 10 uM by Kinomescan method relative to control
[2] = tested on: Epidermal growth factor receptor (Homo sapiens), P00533 [UNDEFINED MUTATION]; assay: Binding affinity to human partial length EGFR S752-I759del mutant expressed in bacterial expression system assessed as residual binding level at 10 uM by Kinomescan method relative to control
[3] = target: Mitogen-activated protein kinase kinase kinase 20 (Homo sapiens) (UniProt Q9NYL2); assay: Binding affinity to wild-type human partial length ZAK (M1 to L331 residues) expressed in bacterial expression system assessed as residual binding level at 10 uM by Kinomescan method relative to control
[4] = target: SRSF protein kinase 1 (Homo sapiens) (UniProt Q96SB4); assay: Binding affinity to wild-type human full length SRPK1 (M1 to S655 residues) expressed in bacterial expression system assessed as residual binding level at 10 uM by Kinomescan method relative to control
[5] = target: Mitogen-activated protein kinase kinase kinase 19 (Homo sapiens) (UniProt Q56UN5); assay: Binding affinity to wild-type human partial length YSK4 (T1019 to H1328 residues) expressed in mammalian expression system assessed as residual binding level at 10 uM by Kinomescan method relative to control
[6] = target: Serine/threonine-protein kinase WNK1 (Homo sapiens) (UniProt Q9H4A3); assay: Binding affinity to wild-type human partial length WNK1 (Q194 to A490 residues) expressed in mammalian expression system assessed as residual binding level at 10 uM by Kinomescan method relative to control
[7] = target: Insulin receptor-related protein (Homo sapiens) (UniProt P14616); assay: Binding affinity to wild-type human partial length INSRR (R950 to E1278 residues) expressed in bacterial expression system assessed as residual binding level at 10 uM by Kinomescan method relative to control
[8] = tested on: Leucine-rich repeat serine/threonine-protein kinase 2 (Homo sapiens), Q5S007 [G2019S]; assay: Binding affinity to human partial length LRRK2 G2019S mutant (H970 to E2527 residues) expressed in mammalian expression system assessed as residual binding level at 10 uM by Kinomescan method relative to control
[9] = target: Mast/stem cell growth factor receptor Kit (Homo sapiens) (UniProt P10721); assay: Binding affinity to wild-type human partial length KIT (I571 to D952 residues) expressed in bacterial expression system assessed as residual binding level at 10 uM by Kinomescan method relative to control
[10] = target: Serine/threonine-protein kinase LATS1 (Homo sapiens) (UniProt O95835); assay: Binding affinity to wild-type human partial length LATS1 (Q678 to V1130 residues) expressed in bacterial expression system assessed as residual binding level at 10 uM by Kinomescan method relative to control
[11] = target: Ephrin type-A receptor 1 (Homo sapiens) (UniProt P21709); assay: Binding affinity to wild-type human partial length EPHA1 (V588 to I913 residues) expressed in bacterial expression system assessed as residual binding level at 10 uM by Kinomescan method relative to control
[12] = target: Mitogen-activated protein kinase 7 (Homo sapiens) (UniProt Q13164); assay: Binding affinity to wild-type human partial length ERK5 (M1 to A409 residues) expressed in bacterial expression system assessed as residual binding level at 10 uM by Kinomescan method relative to control
[13] = target: MAP kinase-activated protein kinase 2 (Homo sapiens) (UniProt P49137); assay: Binding affinity to wild-type human partial length MAPKAPK2 (V48 to D345 residues) expressed in bacterial expression system assessed as residual binding level at 10 uM by Kinomescan method relative to control
[14] = tested on: Epidermal growth factor receptor (Homo sapiens), P00533 [UNDEFINED MUTATION]; assay: Binding affinity to human partial length EGFR L747-S752del/P753S mutant expressed in bacterial expression system assessed as residual binding level at 10 uM by Kinomescan method relative to control
[15] = target: Tyrosine-protein kinase Fer (Homo sapiens) (UniProt P16591); assay: Binding affinity to wild-type human partial length FER (S542 to T822 residues) expressed in bacterial expression system assessed as residual binding level at 10 uM by Kinomescan method relative to control
[16] = tested on: Mast/stem cell growth factor receptor Kit (Homo sapiens), P10721 [D816V]; assay: Binding affinity to human partial length KIT D816V mutant (I571 to D952 residues) expressed in bacterial expression system assessed as residual binding level at 10 uM by Kinomescan method relative to control
[17] = target: Cytoplasmic tyrosine-protein kinase BMX (Homo sapiens) (UniProt P51813); assay: Binding affinity to wild-type human full length BMX (M1 to H675 residues) expressed in bacterial expression system assessed as residual binding level at 10 uM by Kinomescan method relative to control
[18] = target: Activin receptor type-1-like (Homo sapiens) (UniProt P37023); assay: Binding affinity to wild-type human ACVRL1 (L164 to Q503 residues) expressed in bacterial expression system assessed as residual binding level at 10 uM by Kinomescan method relative to control
[19] = target: Casein kinase I isoform gamma-1 (Homo sapiens) (UniProt Q9HCP0); assay: Binding affinity to wild-type human partial length CSNK1G1 (T15 to S353 residues) expressed in bacterial expression system assessed as residual binding level at 10 uM by Kinomescan method relative to control
[20] = target: Mitogen-activated protein kinase kinase kinase 15 (Homo sapiens) (UniProt Q6ZN16); assay: Binding affinity to wild-type human partial length MAP3K15 (T625 to L932 residues) expressed in mammalian expression system assessed as residual binding level at 10 uM by Kinomescan method relative to control
[21] = target: Cyclin-dependent kinase 2 homolog (Plasmodium falciparum (isolate 3D7)) (UniProt P61075); assay: Binding affinity to wild-type Plasmodium falciparum full length PK5 (M1 to N288 residues) expressed in mammalian expression system assessed as residual binding level at 10 uM by Kinomescan method relative to control
[22] = target: Cyclin-dependent kinase 7 (Homo sapiens) (UniProt P50613); assay: Binding affinity to wild-type human full length CDK7 (M1 to L344 residues) expressed in mammalian expression system assessed as residual binding level at 10 uM by Kinomescan method relative to control
[23] = tested on: Phosphatidylinositol 4,5-bisphosphate 3-kinase catalytic subunit alpha isoform (Homo sapiens), P42336 [C420R]; assay: Binding affinity to human partial length PIK3CA C420R mutant (R108 to N1068 residues) expressed in mammalian expression system assessed as residual binding level at 10 uM by Kinomescan method relative to control
[24] = target: Rhodopsin kinase GRK7 (Homo sapiens) (UniProt Q8WTQ7); assay: Binding affinity to wild-type human full length GRK7 (M1 to L553 residues) expressed in mammalian expression system assessed as residual binding level at 10 uM by Kinomescan method relative to control
Chain of Rhodopsin kinase GRK7 (Homo sapiens) (Q8WTQ7 whole entry, the tested form may be a part): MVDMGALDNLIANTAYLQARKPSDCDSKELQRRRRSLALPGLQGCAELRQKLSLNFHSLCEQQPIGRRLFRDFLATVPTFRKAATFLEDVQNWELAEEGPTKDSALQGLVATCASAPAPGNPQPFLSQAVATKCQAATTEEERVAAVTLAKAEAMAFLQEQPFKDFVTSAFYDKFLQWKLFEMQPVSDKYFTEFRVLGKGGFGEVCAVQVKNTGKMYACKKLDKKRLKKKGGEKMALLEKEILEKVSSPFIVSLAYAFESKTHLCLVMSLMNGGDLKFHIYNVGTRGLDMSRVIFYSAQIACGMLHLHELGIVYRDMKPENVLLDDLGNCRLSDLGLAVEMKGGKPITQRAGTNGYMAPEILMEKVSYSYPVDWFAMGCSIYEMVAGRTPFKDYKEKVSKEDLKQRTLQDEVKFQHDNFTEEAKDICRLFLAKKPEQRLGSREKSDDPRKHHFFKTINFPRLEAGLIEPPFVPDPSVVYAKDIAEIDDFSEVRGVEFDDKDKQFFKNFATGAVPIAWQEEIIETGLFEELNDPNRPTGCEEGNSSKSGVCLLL

Chain of Epidermal growth factor receptor (Homo sapiens), P00533 [UNDEFINED MUTATION] (P00533 whole entry, looked up, stated change not applied, the tested form may be a part): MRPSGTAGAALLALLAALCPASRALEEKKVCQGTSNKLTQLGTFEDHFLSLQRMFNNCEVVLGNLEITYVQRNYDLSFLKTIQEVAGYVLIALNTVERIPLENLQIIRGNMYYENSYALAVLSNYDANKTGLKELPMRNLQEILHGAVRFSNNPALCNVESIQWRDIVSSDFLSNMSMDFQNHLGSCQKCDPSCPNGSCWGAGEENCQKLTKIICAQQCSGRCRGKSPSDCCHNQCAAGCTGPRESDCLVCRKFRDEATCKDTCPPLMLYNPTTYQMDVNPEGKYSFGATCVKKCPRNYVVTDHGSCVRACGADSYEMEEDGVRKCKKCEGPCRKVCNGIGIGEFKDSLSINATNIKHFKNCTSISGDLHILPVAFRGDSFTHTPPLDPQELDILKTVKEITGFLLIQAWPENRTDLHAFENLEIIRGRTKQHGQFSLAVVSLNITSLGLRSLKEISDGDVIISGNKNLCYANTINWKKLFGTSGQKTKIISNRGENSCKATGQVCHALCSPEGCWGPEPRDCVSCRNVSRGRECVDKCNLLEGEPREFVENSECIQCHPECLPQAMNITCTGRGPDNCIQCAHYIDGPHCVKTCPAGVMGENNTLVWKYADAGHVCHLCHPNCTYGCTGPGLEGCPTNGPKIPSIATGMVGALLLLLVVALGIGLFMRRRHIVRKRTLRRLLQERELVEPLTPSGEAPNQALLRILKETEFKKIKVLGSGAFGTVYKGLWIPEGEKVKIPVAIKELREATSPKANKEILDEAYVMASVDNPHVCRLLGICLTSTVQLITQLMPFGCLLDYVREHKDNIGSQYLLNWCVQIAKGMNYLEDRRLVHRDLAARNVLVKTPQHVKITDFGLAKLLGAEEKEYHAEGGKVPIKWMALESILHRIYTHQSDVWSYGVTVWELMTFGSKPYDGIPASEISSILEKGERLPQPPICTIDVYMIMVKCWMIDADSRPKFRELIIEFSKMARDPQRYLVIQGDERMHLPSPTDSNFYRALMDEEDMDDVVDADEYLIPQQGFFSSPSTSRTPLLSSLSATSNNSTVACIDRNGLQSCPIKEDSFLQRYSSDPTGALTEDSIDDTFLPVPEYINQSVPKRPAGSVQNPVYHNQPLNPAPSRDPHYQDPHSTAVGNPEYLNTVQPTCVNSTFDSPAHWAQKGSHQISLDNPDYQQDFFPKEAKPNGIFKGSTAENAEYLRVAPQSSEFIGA
Chain of Ephrin type-A receptor 1 (Homo sapiens) (P21709 whole entry, the tested form may be a part): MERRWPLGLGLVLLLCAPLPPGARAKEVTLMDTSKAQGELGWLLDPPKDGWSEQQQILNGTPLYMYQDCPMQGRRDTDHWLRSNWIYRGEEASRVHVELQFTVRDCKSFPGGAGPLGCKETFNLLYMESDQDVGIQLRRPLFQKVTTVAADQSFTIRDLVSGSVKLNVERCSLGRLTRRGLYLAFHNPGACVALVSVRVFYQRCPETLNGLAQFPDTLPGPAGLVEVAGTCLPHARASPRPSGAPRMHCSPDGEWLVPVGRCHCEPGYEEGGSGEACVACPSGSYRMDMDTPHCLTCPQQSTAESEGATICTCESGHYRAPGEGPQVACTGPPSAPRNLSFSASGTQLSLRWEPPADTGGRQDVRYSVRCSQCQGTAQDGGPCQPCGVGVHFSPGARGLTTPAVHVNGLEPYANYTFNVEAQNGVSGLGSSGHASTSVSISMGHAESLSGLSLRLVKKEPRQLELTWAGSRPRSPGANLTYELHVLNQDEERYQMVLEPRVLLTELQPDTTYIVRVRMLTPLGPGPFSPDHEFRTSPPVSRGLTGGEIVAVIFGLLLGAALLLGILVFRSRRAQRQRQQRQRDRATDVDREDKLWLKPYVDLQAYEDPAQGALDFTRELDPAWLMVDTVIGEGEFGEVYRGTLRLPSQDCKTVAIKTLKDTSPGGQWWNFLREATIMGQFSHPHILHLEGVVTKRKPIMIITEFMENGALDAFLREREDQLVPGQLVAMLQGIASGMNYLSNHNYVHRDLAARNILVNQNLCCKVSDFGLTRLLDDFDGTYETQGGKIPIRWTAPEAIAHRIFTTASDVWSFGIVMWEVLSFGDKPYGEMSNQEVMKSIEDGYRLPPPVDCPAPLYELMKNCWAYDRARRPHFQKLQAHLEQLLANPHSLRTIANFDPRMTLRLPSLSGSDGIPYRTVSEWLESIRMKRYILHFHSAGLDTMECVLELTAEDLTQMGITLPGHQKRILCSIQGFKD
Chain of Mast/stem cell growth factor receptor Kit (Homo sapiens) (P10721 whole entry, the tested form may be a part): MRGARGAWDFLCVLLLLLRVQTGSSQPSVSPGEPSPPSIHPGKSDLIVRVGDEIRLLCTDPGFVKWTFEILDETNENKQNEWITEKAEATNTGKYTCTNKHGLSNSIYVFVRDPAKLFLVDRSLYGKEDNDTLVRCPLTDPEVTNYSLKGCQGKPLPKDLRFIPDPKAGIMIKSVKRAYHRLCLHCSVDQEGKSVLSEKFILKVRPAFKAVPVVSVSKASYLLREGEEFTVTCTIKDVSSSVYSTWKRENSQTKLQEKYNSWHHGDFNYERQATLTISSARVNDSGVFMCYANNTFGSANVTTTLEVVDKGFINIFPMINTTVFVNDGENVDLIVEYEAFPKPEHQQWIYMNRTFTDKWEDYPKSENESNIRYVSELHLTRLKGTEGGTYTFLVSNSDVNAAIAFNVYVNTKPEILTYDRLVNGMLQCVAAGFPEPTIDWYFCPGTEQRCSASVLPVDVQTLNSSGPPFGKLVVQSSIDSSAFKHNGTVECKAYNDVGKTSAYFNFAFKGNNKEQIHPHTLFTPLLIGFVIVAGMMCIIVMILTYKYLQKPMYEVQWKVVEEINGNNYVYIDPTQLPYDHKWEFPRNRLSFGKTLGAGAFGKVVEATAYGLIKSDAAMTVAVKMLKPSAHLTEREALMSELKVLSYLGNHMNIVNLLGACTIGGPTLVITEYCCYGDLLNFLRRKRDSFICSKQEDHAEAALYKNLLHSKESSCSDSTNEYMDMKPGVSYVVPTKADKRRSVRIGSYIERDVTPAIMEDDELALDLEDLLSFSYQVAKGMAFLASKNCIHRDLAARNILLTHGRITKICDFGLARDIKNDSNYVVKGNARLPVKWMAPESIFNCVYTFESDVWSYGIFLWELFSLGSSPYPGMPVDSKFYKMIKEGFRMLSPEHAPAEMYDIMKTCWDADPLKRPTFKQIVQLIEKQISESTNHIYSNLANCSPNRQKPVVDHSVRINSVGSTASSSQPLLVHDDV
Chain of Mitogen-activated protein kinase 7 (Homo sapiens) (Q13164 2-816 limits assumed): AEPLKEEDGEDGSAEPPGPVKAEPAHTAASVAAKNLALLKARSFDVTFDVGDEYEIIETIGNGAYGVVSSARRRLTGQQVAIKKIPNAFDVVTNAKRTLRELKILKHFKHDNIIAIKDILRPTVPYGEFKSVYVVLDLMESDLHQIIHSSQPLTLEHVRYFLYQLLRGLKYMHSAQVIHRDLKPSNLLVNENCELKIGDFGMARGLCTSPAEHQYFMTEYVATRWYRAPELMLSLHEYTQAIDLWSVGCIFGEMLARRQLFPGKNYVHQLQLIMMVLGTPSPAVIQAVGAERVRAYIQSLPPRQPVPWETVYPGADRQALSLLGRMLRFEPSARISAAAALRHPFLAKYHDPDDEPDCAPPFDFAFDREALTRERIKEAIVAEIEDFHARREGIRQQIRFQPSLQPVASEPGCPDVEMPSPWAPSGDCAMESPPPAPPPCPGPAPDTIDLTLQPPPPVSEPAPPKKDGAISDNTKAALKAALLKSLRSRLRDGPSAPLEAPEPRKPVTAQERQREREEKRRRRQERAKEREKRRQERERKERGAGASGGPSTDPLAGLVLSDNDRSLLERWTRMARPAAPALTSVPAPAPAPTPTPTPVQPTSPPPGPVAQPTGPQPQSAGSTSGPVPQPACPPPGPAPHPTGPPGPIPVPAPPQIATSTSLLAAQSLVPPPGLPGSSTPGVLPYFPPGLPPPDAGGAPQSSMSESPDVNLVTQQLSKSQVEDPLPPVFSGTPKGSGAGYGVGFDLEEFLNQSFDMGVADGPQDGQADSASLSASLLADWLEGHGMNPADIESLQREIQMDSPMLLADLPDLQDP
Chain of Casein kinase I isoform gamma-1 (Homo sapiens) (Q9HCP0 whole entry, looked up, the tested form may be a part, canonical isoform): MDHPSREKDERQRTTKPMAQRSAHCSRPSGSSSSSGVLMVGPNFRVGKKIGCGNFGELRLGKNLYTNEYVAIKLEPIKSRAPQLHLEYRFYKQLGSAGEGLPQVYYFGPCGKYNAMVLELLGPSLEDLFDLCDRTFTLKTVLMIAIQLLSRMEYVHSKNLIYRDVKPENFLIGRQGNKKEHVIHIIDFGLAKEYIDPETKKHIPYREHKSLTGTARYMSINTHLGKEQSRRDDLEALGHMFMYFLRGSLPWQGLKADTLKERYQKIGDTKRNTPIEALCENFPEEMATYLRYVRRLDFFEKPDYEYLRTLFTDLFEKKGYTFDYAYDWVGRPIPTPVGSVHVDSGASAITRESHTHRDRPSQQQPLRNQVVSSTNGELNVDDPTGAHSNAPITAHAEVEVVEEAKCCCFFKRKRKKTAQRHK

SMILES: O=C(Nc1cc(-c2cn(CCNc3c4c(nc5ccccc35)CCCC4)nn2)ccn1)Nc1cccc2c1C1CCCCN1C2=O (racemic)
- Activity [1]: 2.4%
- Activity [2]: 80%
- Activity [3]: 31%
- Activity [4]: 8.2%
- Activity [5]: 8.5%
- Activity [6]: 100%
- Activity [7]: 68%
- Activity [8]: 24%
- Activity [9]: 0.25%
- Activity [10]: 90%
- Activity [11]: 60%
- Activity [12]: 57%
- Activity [13]: 100%
- Activity [14]: 80%
- Activity [15]: 100%
- Activity [16]: 1%
- Activity [17]: 100%
- Activity [18]: 100%
- Activity [19]: 63%
- Activity [20]: 100%
- Activity [21]: 100%
- Activity [22]: 2.3%
- Activity [23]: 72%
- Activity [24]: 61%
